# From patent US12280044B2, “Proteolysis-targeting chimera molecule and preparation method and use thereof” (GUANGZHOU MEDICAL UNIVERSITY, priority 2022, dated 2025)
# Key:
# TYR [1] = target: T1, TYR (Homo sapiens, UniProt P14679); experiment: Performance test: TYR-inhibiting efficiency; format: cell-based; design: endogenous in cells
# T1 sequence (P14679 19-529): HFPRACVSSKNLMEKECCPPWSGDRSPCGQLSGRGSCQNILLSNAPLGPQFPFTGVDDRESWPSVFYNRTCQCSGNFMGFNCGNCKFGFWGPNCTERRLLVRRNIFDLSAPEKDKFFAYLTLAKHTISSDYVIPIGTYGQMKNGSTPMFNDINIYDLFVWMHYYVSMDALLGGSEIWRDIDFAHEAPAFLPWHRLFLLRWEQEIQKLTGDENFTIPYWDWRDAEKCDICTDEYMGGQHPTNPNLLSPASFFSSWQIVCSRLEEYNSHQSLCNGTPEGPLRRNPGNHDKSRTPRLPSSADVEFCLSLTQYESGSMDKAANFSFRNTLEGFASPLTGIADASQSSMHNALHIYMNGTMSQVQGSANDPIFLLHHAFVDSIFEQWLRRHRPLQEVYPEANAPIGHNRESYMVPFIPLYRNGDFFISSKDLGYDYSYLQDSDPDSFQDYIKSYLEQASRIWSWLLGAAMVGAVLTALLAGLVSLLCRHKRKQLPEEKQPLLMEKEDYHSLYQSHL
# Method: (§1) The cytotoxicity, TYR-inhibiting efficiency, and solubility of the molecule A3 were tested.
# The PROTAC molecule of the present application has excellent solubility and safety (IC50>200 μM) and a low effective concentration (1 μM to 10 μM).
# [2] = Performance test: cytotoxicity; format: cell-based
# Method: as §1
# zebrafish [3] = experiment: Zebrafish experiment: melanin production in the back (gray value); format: in vivo
# Method: (§2) Cultivation conditions for zebrafish and fish eggs: a temperature: 28° C.±1° C.; light: irradiation with a fluorescent lamp; and a light/dark cycle: 14 h light/10 h dark.
# 1. A specific experimental method was as follows: • (1) In the afternoon of day 1, fish mating was conducted to produce 800 to 1,000 fish eggs in a same batch. […] In the afternoon of day 2, water was replaced by an E3 medium including a sample in a corresponding experimental group. • (3) Every morning thereafter, the original medium was replaced by a fresh E3 medium including a sample in a corresponding experimental group. • (4) After fish came out from an egg membrane, the egg membrane was removed, the plate was washed twice with an E3 medium, and an E3 medium including a sample in a corresponding experimental group was added, where a date on which the fish came out from the egg membrane was recorded as day 0. • (5) From day 1 to day 5, after a medium was changed every morning, 15 fish were randomly selected from each experimental group and tested under a stereo microscope to measure a gray value of a back. Survival rates of zebrafish under different drug treatments were counted.
# [4] = Performance test: solubility; format: physicochemical; details: organic solvent or mixture; in DMSO
# Method: as §1
# zebrafish [5] = experiment: Zebrafish experiment: survival rates under drug treatment; format: in vivo
# Method: as §2
# 1. A specific experimental method was as follows: • (1) In the afternoon of day 1, fish mating was conducted to produce 800 to 1,000 fish eggs in a same batch. Experimental groups: an untreated group (negative control), a TYR-4 drug group A3 (10 μM), an arbutin group 1 (10 μM), and an arbutin group 2 (20 mM). • (2) In the morning of day 2, fish eggs were collected and dispensed in a 24-well plate with about 10 embryos per well, where 12 wells were set for each treatment group, that is, about 120 embryos were adopted for each treatment group. In the afternoon of day 2, water was replaced by an E3 medium including a sample in a corresponding experimental group. • (3) Every morning thereafter, the original medium was replaced by a fresh E3 medium including a sample in a corresponding experimental group. • (4) After fish came out from an egg membrane, the egg membrane was removed, the plate was washed twice with an E3 medium, and an E3 medium including a sample in a corresponding experimental group was added, where a date on which the fish came out from the egg membrane was recorded as day 0. • (5) From day 1 to day 5, after a medium was changed every morning, 15 fish were randomly selected from each experimental group and tested under a stereo microscope to measure a gray value of a back. Survival rates of zebrafish under different drug treatments were counted.
# TYR [6] = target: T1, TYR; experiment: TYR protein level by western blot in human melanoma cell line MNT-1; format: cell-based; design: endogenous in cells; host or cells: MNT-1 human melanoma cells; details: MNT-1 cells, 24 h, 0.001-10 μmol/L, WB
# Method: (§3) The human melanoma cell line MNT-1 was treated for 24 h with the molecule A3 at a concentration gradient, and then a protein sample was collected and tested by WB to determine a protein level of TYR. In the concentration gradient, final concentrations of the molecule A3 were 0.001 μmol/L, 0.01 μmol/L, 0.1 μmol/L, 1 μmol/L, and 10 μmol/L, respectively.
# zebrafish [7] = experiment: Zebrafish experiment: melanin precipitate after lysis on day 5; format: in vivo; details: 10 μM
# Method: 2. After photographing was completed on day 5, 100 zebrafish were taken from each group (only 80 to 90 live fish were left in the 10 μM arbutin group), transferred to a 1.5 mL EP tube, and washed twice with pure water, then 500 μL of 1 M Tris-HCl with a pH of 8.0 was added, ultrasonic lysis was conducted on ice (40% power, on 3 s/off 2 s per cycle, and ultrasonic time: 10 min), and a resulting lysis system was centrifuged at 12,000 rpm and 4° C. for 15 min to obtain a melanin precipitate.
# TYR [8] = target: T1, TYR; experiment: TYR protein level by western blot in human melanoma cell line A375; format: cell-based; design: endogenous in cells; host or cells: MNT-1 human melanoma cells; details: A375 cells, 24 h, 0.001-10 μmol/L, WB
# Method: as §3, with “A375” for “MNT-1”, “western blot (WB)” for “WB”
# TYR [9] = target: T1, TYR; experiment: Degradation pathway detection with proteasome inhibitor MG132 in MNT-1 cells (WB of TYR); format: cell-based; design: endogenous in cells; host or cells: MNT-1 human melanoma cells; details: 1 or 10 μM A3 + 10 μM MG132, 24 h
# From the text: A molecular mechanism of the PROTAC molecule to degrade a target protein is as follows: molecular elements at two ends of the PROTAC molecule bind to the target protein and an ubiquitin ligase, respectively, such that the target protein is ubiquitinated and thus degraded by a proteasome. A proteasome inhibitor MG132 was used to determine whether an impact of the PROTAC molecule on a protein level of TYR was based on a proteasome degradation pathway.
# A specific treatment method included the following steps: • (1) MNT-1 cells were plated on a 6-well plate and allowed to grow adherently until a cell confluency was 80%. • (2) The cells were treated according to the following groups: • (a) a normal control group; (b) a 1 μM A3 treatment group; (c) a 10 μM A3 treatment group; (d) a 10 μM MG132 treatment group; (e) a 1 μM A3+10 μM MG132 treatment group; and (f) a 10 μM A3+10 μM MG132 treatment group. • (3) 24 h after a treatment, cells in each group were collected and lysed, and a resulting total protein lysate was collected and tested by WB to determine an expression level of TYR.
Structure (SMILES),EC50 (TYR [1]) [µM],IC50 [2] [µM],"inhibitory effect on melanin production in zebrafish (gray value of back) (zebrafish [3]; 10 μM, day 1 to day 5)",effect on melanin production compared with arbutin (zebrafish [3]; same concentration (10 μM)),solubility [4] [mg/mL],"toxic and side effects, death (zebrafish [5]; effective concentration (10 μM))",inhibitory effect on TYR protein level (TYR [6]),melanin precipitate amount versus untreated group (zebrafish [7]),inhibitory effect on TYR protein level (TYR [8]),degradation effect on TYR after MG132 is added (TYR [9]),day on which death occurs (zebrafish [5]; 10 μM) [days],"live fish left (zebrafish [5]; 10 μM, day 5)","survival rate (zebrafish [5]; 10 μM, day 5)",day on which death occurs (zebrafish [5]; 20 mM) [days],"survival (zebrafish [5]; 20 mM, day 5)"
O=C1CCC(N2Cc3c(NC(=O)CCCCCCNC(=O)c4cc[nH]c(=S)c4)cccc3C2=O)C(=O)N1 (stereo not shown) [A3],< 10,> 200,significant inhibitory effect on melanin production in zebrafish,better effect than common whitening agents such as arbutin,> 523,does not have any toxic and side effects and does not cause death,has a significant inhibitory effect on TYR in the cell line MNT-1,significantly smaller than the melanin precipitate amount in the untreated group,has an inhibitory effect on TYR in the cell line A375,significantly inhibited after MG132 is added,–,–,–,–,–
OC[C@H]1O[C@@H](Oc2ccc(O)cc2)[C@H](O)[C@@H](O)[C@@H]1O [arbutin],–,–,–,–,–,–,–,significantly smaller than the melanin precipitate amount in the untreated group,–,–,4,80 to 90,about 80%,3,basically dies
